Measured values published in ChEMBL document CHEMBL1154536, “Optimization of 4,6-bis-anilino-1H-pyrrolo[2,3-d]pyrimidine IGF-1R tyrosine kinase inhibitors towards JNK selectivity” (Bioorg Med Chem Lett, 2009).

What was measured:
[1] = target: Mitogen-activated protein kinase 8 (Homo sapiens, UniProt P45983); assay: Inhibition of His-tagged JNK1
[2] = target: T1, Insulin-like growth factor 1 receptor (Homo sapiens, UniProt P08069); assay: Inhibition of IGF-1R
[3] = target: T1, Insulin-like growth factor 1 receptor; assay: Inhibition of phospho IGFR1 by cellular assay
[4] = Cmax in rat at 13 mg/kg, po; type: ADME, organism-based; parameters: dose 13 mg/kg, route oral; settings: in vivo
[5] = Oral bioavailability in rat at 13 mg/kg, po; type: ADME, organism-based; settings: in vivo
[6] = tested on: Rattus norvegicus; assay: Dose normalized AUC (0 to 8 hrs) in rat at 13 mg/kg, po; type: ADME, organism-based; parameters: time < 8 hr, dose 13 mg/kg, route oral; settings: in vivo
[7] = Clearance in rat at 2.5 mg/kg, iv and […] mg/kg, po; type: ADME, organism-based; settings: in vivo
[8] = Clearance in rat at 2.6 mg/kg, iv and […] mg/kg, po; type: ADME, organism-based; settings: in vivo
[9] = target: T1, Insulin-like growth factor 1 receptor; assay: Inhibition of phospho IGFR1 by cellular assay in presence of 2%HSA
[10] = Oral bioavailability in rat at 10 mg/kg, po; type: ADME, organism-based; settings: in vivo
[11] = Clearance in rat at 2.5 mg/kg, iv and 10 mg/kg, po; type: ADME, organism-based; settings: in vivo
[12] = Cmax in rat at 10 mg/kg, po; type: ADME, organism-based; parameters: dose 10 mg/kg, route oral; settings: in vivo
[13] = tested on: Rattus norvegicus; assay: Dose normalized AUC (0 to 8 hrs) in rat at 10 mg/kg, po; type: ADME, organism-based; parameters: time < 8 hr, dose 10 mg/kg, route oral; settings: in vivo
[14] = target: Mitogen-activated protein kinase 10 (Homo sapiens, UniProt P53779); assay: Inhibition of human His-tagged JNK3
[15] = target: ALK tyrosine kinase receptor (Homo sapiens, UniProt Q9UM73); assay: Inhibition of ALK
[16] = target: Insulin receptor (Homo sapiens, UniProt P06213); assay: Inhibition of IR
[17] = tested on: Rattus norvegicus; assay: Dose normalized AUC (0 to 8 hrs) in rat at 9 mg/kg, po; type: ADME, organism-based; parameters: time < 8 hr, dose 9 mg/kg, route oral; settings: in vivo
[18] = Cmax in rat at 9 mg/kg, po; type: ADME, organism-based; parameters: dose 9 mg/kg, route oral; settings: in vivo

Chain of Mitogen-activated protein kinase 8 (P45983 whole entry): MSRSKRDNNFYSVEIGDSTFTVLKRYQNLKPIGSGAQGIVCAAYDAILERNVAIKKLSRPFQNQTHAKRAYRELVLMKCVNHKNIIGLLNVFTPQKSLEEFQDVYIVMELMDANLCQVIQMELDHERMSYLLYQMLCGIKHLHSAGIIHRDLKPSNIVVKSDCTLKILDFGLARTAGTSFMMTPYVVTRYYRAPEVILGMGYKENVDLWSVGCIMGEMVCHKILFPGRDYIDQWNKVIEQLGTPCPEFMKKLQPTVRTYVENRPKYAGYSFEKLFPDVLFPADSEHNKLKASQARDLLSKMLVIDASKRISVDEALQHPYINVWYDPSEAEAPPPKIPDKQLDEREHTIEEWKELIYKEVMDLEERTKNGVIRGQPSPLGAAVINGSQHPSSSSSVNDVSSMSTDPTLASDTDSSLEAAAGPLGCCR
T1 sequence (P08069 31-736 limits assumed): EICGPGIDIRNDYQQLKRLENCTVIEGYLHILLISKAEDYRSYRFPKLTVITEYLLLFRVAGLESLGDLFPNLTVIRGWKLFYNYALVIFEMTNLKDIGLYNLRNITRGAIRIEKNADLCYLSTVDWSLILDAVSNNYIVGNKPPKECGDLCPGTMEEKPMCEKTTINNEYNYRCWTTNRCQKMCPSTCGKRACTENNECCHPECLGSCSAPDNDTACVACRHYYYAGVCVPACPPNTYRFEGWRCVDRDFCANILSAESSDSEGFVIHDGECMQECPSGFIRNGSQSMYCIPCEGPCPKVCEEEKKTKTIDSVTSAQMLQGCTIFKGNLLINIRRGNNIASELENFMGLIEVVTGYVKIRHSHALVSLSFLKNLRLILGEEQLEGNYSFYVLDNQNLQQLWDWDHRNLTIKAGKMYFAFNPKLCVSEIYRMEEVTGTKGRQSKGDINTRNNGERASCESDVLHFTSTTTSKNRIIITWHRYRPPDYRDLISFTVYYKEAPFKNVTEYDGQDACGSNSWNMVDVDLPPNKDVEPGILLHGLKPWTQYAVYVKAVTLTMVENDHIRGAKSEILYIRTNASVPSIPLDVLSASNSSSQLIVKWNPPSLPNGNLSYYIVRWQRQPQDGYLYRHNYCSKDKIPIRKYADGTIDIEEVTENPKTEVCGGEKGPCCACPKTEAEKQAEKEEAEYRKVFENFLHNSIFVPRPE
T1 sequence (P08069 741-1367 limits assumed): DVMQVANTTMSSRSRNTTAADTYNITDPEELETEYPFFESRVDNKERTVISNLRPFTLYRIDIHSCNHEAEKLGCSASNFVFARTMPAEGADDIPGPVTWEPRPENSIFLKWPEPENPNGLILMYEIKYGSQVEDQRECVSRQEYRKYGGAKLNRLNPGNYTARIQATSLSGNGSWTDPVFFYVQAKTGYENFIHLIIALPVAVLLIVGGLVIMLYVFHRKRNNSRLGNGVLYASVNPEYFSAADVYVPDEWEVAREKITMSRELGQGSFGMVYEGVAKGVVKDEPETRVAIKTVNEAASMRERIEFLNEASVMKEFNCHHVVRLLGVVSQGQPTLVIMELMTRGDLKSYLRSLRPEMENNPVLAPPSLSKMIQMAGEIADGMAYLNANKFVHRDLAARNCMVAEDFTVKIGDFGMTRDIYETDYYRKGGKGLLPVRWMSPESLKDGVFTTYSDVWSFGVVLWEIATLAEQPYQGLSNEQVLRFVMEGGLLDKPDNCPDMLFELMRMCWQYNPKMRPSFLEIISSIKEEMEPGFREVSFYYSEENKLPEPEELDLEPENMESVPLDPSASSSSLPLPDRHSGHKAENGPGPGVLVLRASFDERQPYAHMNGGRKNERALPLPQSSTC
Chain of Mitogen-activated protein kinase 10 (P53779 whole entry): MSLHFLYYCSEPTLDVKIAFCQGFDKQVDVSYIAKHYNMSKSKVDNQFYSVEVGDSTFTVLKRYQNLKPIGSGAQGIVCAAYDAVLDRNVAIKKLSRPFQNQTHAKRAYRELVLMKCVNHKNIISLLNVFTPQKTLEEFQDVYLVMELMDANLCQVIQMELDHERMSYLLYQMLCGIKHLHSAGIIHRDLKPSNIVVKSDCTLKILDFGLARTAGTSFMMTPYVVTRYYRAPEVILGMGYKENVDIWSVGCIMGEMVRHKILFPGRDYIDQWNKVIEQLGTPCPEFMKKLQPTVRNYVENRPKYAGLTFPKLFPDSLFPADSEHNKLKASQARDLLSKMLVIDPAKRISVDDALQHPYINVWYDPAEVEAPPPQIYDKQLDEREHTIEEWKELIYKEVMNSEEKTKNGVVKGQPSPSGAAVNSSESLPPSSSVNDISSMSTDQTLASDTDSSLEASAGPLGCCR
Chain of ALK tyrosine kinase receptor (Q9UM73 whole entry): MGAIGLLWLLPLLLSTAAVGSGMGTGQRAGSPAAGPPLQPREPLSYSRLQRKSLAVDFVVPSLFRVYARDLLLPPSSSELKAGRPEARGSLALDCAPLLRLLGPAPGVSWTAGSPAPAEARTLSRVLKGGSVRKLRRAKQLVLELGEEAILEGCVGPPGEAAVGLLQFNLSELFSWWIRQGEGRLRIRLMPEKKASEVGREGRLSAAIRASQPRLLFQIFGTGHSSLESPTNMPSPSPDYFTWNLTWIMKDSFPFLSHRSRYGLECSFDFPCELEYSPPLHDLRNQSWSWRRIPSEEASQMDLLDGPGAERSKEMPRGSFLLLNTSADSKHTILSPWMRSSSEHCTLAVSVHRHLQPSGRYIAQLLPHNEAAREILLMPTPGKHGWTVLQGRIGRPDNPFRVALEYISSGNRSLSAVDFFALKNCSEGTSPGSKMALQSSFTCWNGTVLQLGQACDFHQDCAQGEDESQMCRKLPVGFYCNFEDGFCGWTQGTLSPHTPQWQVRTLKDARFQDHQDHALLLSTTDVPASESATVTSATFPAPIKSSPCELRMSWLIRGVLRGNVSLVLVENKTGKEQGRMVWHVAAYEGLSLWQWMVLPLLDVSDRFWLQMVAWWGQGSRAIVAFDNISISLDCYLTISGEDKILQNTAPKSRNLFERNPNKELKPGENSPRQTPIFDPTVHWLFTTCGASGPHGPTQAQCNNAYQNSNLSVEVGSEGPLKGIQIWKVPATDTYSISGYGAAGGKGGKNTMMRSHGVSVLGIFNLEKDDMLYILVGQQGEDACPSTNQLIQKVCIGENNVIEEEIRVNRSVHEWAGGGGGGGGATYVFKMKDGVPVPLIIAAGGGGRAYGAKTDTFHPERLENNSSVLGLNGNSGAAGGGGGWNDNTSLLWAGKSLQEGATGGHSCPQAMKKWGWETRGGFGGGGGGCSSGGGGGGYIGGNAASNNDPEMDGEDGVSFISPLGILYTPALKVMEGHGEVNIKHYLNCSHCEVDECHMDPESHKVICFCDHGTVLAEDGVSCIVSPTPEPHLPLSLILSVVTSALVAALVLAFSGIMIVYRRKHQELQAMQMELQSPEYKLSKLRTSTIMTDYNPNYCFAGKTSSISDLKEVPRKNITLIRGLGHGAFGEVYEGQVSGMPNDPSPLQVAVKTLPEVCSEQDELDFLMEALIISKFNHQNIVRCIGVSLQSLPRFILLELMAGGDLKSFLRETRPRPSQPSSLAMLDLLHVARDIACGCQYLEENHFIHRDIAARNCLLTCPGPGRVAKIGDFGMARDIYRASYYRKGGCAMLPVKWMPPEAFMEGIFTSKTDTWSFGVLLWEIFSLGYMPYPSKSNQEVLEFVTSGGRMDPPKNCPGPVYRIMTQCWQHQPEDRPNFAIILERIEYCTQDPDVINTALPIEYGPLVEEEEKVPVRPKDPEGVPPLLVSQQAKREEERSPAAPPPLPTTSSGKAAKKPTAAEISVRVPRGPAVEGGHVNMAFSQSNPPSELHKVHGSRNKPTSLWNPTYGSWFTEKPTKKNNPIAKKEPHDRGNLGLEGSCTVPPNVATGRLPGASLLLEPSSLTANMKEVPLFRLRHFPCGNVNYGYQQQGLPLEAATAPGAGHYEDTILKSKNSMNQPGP

COc1cc2c(cc1Nc1nc(Nc3cccc(F)c3C(N)=O)c3cc[nH]c3n1)N(C(=O)CCN1CCN(C(C)C)CC1)CC2
IC50 [1]: 1590 nM | IC50 [2]: 4 nM | IC50 [3]: 651 nM

COc1cc2c(cc1Nc1nc(Nc3cccc(F)c3C(N)=O)c3cc[nH]c3n1)N(C(C)=O)CCC2
IC50 [1]: 7940 nM | IC50 [2]: 25 nM | IC50 [3]: 1980 nM

COc1ccc(OCCCN(C)C)cc1Nc1nc(Nc2cccc(F)c2C(N)=O)c2cc[nH]c2n1
Cmax [4]: 192 ng/mL | bioavailability [5]: 60% | AUC [6]: 85 ng·h/mL/mg/kg | clearance [7]: 112 mL/min/kg | IC50 [1]: 631 nM | IC50 [2]: 8 nM | IC50 [3]: 81 nM

COc1cc2c(cc1Nc1nc(Nc3cccc(F)c3C(N)=O)c3cc[nH]c3n1)N(C(C)=O)CC2
IC50 [1]: 126 nM | IC50 [2]: 6 nM | IC50 [3]: 278 nM

CNCC(=O)N1CCc2cc(OC)c(Nc3nc(Nc4cccc(F)c4C(N)=O)c4cc[nH]c4n3)cc21
IC50 [1]: 2000 nM | IC50 [2]: 2 nM | IC50 [3]: 79 nM

COc1ccc(CCCN(C)C)cc1Nc1nc(Nc2cccc(F)c2C(N)=O)c2cc[nH]c2n1
IC50 [1]: 5010 nM | IC50 [2]: 13 nM | IC50 [3]: 212 nM

COc1cc2c(cc1Nc1nc(Nc3cccc(F)c3C(N)=O)c3cc[nH]c3n1)N(C(=O)CN(C)C)CC2
Cmax [4]: 455 ng/mL | bioavailability [5]: 61% | clearance [8]: 48 mL/min/kg | IC50 [9]: 487 nM | AUC [6]: 190 ng·h/mL/mg/kg | IC50 [1]: 1590 nM | IC50 [3]: 56 nM

COc1cc2c(cc1Nc1nc(Nc3cccc(F)c3C(N)=O)c3cc[nH]c3n1)N(CCN(C)C)CC2
IC50 [1]: 100 nM | IC50 [2]: 40 nM | IC50 [3]: 794 nM

CCN(C)CC(=O)N1CCc2cc(OC)c(Nc3nc(Nc4cccc(F)c4C(N)=O)c4cc[nH]c4n3)cc21
IC50 [1]: 3160 nM | IC50 [2]: 3 nM | IC50 [3]: 19 nM

CCCN1CCC(Oc2ccc(OC)c(Nc3nc(Nc4cccc(F)c4C(N)=O)c4cc[nH]c4n3)c2)CC1
IC50 [1]: 1260 nM | IC50 [2]: 6 nM | IC50 [3]: 929 nM

COc1cc2c(cc1Nc1nc(Nc3cccc(F)c3C(N)=O)c3cc[nH]c3n1)N(C(=O)CN(C)OC)CC2
IC50 [1]: 794 nM | IC50 [2]: 50 nM | IC50 [3]: 877 nM

CNC(=O)c1c(F)cccc1Nc1nc(Nc2cc3c(cc2OC)CCN3C(=O)CN(C)C)nc2[nH]ccc12
bioavailability [10]: 98% | clearance [11]: 73 mL/min/kg | Cmax [12]: 365 ng/mL | AUC [13]: 210 ng·h/mL/mg/kg

CCN(CC)CC(=O)N1CCc2cc(OC)c(Nc3nc(Nc4cccc(F)c4C(N)=O)c4cc[nH]c4n3)cc21
IC50 [1]: 1000 nM | IC50 [2]: 2 nM | IC50 [3]: 85 nM

COc1cc2c(cc1Nc1nc(Nc3cccc(F)c3C(N)=O)c3cc[nH]c3n1)N(C(=O)CN1CCC1)CC2
IC50 [1]: 2000 nM | IC50 [2]: 1 nM | IC50 [3]: 128 nM

COc1cc(C)c(N2CCN(C(C)C)CC2)cc1Nc1nc(Nc2cccc(F)c2C(N)=O)c2cc[nH]c2n1
IC50 [14]: 6310 nM | IC50 [1]: 3890 nM

COc1cc2c(cc1Nc1nc(Nc3cccc(F)c3C(N)=O)c3cc[nH]c3n1)N(C(=O)Cn1ccnc1)CC2
IC50 [1]: 631 nM | IC50 [2]: 32 nM | IC50 [3]: 7760 nM

COc1cc2c(cc1Nc1nc(Nc3cccc(F)c3C(N)=O)c3cc[nH]c3n1)N(C(=O)CCN(C)C)CCC2
IC50 [1]: 7940 nM | IC50 [2]: 10 nM | IC50 [3]: 209 nM

COc1cc2c(cc1Nc1nc(Nc3cccc(F)c3C(N)=O)c3cc[nH]c3n1)N(C(=O)CN1CCCCC1)CCC2
IC50 [1]: 2510 nM | IC50 [2]: 1 nM | IC50 [3]: 11 nM

COc1ccc(N(C)C(=O)CN(C)C)cc1Nc1nc(Nc2cccc(F)c2C(N)=O)c2cc[nH]c2n1
IC50 [1]: 10000 nM | IC50 [2]: 50 nM | IC50 [3]: 377 nM

COc1ccc(NC(=O)CN(C)C)cc1Nc1nc(Nc2cccc(F)c2C(N)=O)c2cc[nH]c2n1
IC50 [1]: 3160 nM | IC50 [2]: 1 nM | IC50 [3]: 28 nM

COc1cc2c(cc1Nc1nc(Nc3cccc(F)c3C(N)=O)c3cc[nH]c3n1)N(C(=O)CN1CCOCC1)CC2
IC50 [1]: 126 nM | IC50 [2]: 13 nM | IC50 [3]: 72 nM

COc1cc(N2CCN(C(C)C)CC2)ccc1Nc1nc(Nc2cccc(F)c2C(N)=O)c2cc[nH]c2n1
IC50 [15]: 0.5 nM | IC50 [14]: 100 nM | IC50 [16]: 1.6 nM | IC50 [1]: 13 nM

COc1cc2c(cc1Nc1nc(Nc3cccc(F)c3C(N)=O)c3cc[nH]c3n1)N(C(=O)CCN1CCOCC1)CC2
IC50 [1]: 251 nM | IC50 [2]: 6 nM | IC50 [3]: 298 nM

COc1cc(C)c(CCCN(C)C)cc1Nc1nc(Nc2cccc(F)c2C(N)=O)c2cc[nH]c2n1
IC50 [1]: 501 nM | IC50 [2]: 13 nM | IC50 [3]: 840 nM

COc1ccc(N2CCN(C(C)C)CC2)cc1Nc1nc(Nc2cccc(F)c2C(N)=O)c2cc[nH]c2n1
AUC [17]: 133 ng·h/mL/mg/kg | Cmax [18]: 233 ng/mL | IC50 [14]: 5010 nM | IC50 [1]: 3160 nM | IC50 [3]: 201 nM

COc1cc2c(cc1Nc1nc(Nc3cccc(F)c3C(N)=O)c3cc[nH]c3n1)N(C(=O)CN(C)C)CCC2
IC50 [1]: 6310 nM | IC50 [2]: 1 nM | IC50 [3]: 16 nM

COc1cc2c(cc1Nc1nc(Nc3cccc(F)c3C(N)=O)c3cc[nH]c3n1)N(C(=O)CCN(C)C)CC2
IC50 [1]: 794 nM | IC50 [2]: 8 nM | IC50 [3]: 191 nM

COc1cc2c(cc1Nc1nc(Nc3cccc(F)c3C(N)=O)c3cc[nH]c3n1)N(C(=O)CN)CC2
IC50 [1]: 1000 nM | IC50 [2]: 4 nM | IC50 [3]: 765 nM

COc1cc2c(cc1Nc1nc(Nc3cccc(F)c3C(N)=O)c3cc[nH]c3n1)N(C(=O)CN1CCCC1)CC2
IC50 [1]: 1260 nM | IC50 [2]: 1 nM | IC50 [3]: 24 nM

COc1cc(Cl)c(OCCCN(C)C)cc1Nc1nc(Nc2cccc(F)c2C(N)=O)c2cc[nH]c2n1
IC50 [1]: 1260 nM | IC50 [2]: 13 nM | IC50 [3]: 895 nM

CCCN1CCC(Oc2cc(Nc3nc(Nc4cccc(F)c4C(N)=O)c4cc[nH]c4n3)c(OC)cc2Cl)CC1 [GSK-1713088A]
IC50 [1]: 3980 nM | IC50 [2]: 25 nM | IC50 [3]: 5370 nM

COc1cc2c(cc1Nc1nc(Nc3cccc(F)c3C(N)=O)c3cc[nH]c3n1)N(C(=O)CN1CCN(C(C)C)CC1)CC2 [GSK-1751853A]
IC50 [1]: 1590 nM | IC50 [2]: 32 nM | IC50 [3]: 376 nM

COc1cc(C)c(NC(=O)CN(C)C)cc1Nc1nc(Nc2cccc(F)c2C(N)=O)c2cc[nH]c2n1 [GSK-2213727A]
IC50 [1]: 2000 nM | IC50 [2]: 0.5 nM | IC50 [3]: 38 nM

COc1cc(C)c(N(C)C(=O)CN(C)C)cc1Nc1nc(Nc2cccc(F)c2C(N)=O)c2cc[nH]c2n1 [GSK-2219385A]
IC50 [1]: 10000 nM | IC50 [2]: 63 nM | IC50 [3]: 1730 nM
